Data from patent publication US11771685B2, “Compounds for the treatment of neurological or mitochondrial diseases” (MUSC FOUNDATION FOR RESEARCH DEVELOPMENT, priority 2018, dated 2023).

Columns and labels:
HT22 cells = test: HT22 oxytosis (glutamate-induced cell death) neuroprotection assay; format: cell-based, mouse; conditions: 10 mM Glu; for EC50: Mus musculus
Method: The HT22 murine hippocampal cell system was chosen as an initial phenotypic screen for neuroprotective efficacy (Andreux et al., 2013; Andreux et al., 2014; Ohlow et al., 2017; Schubert and Maher, 2012). HT22 cells exposed to high extracellular Glu ([…]) undergo oxytosis, a non-apoptotic programmed cell death involving glutathione (GSH) depletion followed by ROS accumulation, oxidative damage, and a cytotoxic signaling cascade (Tan et al., 2001). Glu blocks the −xC cystine antiporter, causing (Tan et al., 2001) cells to accumulate severe oxidative stress, mitochondrial depolarization, disrupted mitochondrial morphology, and Ca^2+ influx (Tan et al., 2001; Yang et al., 2011; Cheng et al., 2013—cellular events that may occur in neurological diseases, including epilepsy. Thus, the immortalized HT22 cell line is a well-established model of neuronal oxidative stress (Sagara and Schubert, 1998; Matsumoto et al., 1996; Albrecht et al., 2010; Ha and Park, 2006; van Leyen et al., 2005; Tobaben et al., 2011), and a verified model of neurodegeneration to screen for potential neuroprotective drugs (Albrecht et al., 2010; van Leyen et al., 2008; Lewerenz et al., 2009; Lewerenz et al., 2003).
Consistent with that work, most of the 2-amino compounds achieved protection of HT22 cells against glutamate-induced oxytosis in the nM to μM range. […] Neuroprotection based on relative cell viability compared to +Glu and −Glu control cells was measured.
The HT22 neuronal cell line is a subclone of HT4, derived from the mouse hippocampus (Morimoto and Koshland, 1990). […] The HT22 cells used in this study were kindly provided by Dr. David Schubert (The Salk Institute for Biological Studies, La Jolla, CA, USA). The cells were grown in Dulbecco's Modified Eagle's Medium (DMEM/high glucose) supplemented with 10% fetal bovine serum (Hyclone) and 5 mL of antibiotic-antimycotic (Amphotericin B, Penicillin, and Streptomycin; Invitrogen) at 37° C. in 5% CO2.
HT-22 cells were seeded onto 96-well plates at 2.5×10^3 cells per well in 75 μL of medium and maintained at 37° C. in 5% CO2 overnight prior to the initiation of experimental treatments. For glutamate toxicity testing, cells were subsequently treated with 25 μL of medium containing glutamate (monosodium glutamate, Sigma, 1 M stock concentration in media, to achieve a final concentration of 10 mM) plus compound (stock in DMSO) and maintained at 37° C. in 5% CO2 for 24 hr. CellTiter-Blue® (resazurin cell viability assay reagent) was then added to each well at a final concentration of 0.125 mg/mL. The mixture was allowed to incubate for 2-4 hr until sufficient color change occurred. Cell viability was measured as a function of resorufin fluorescence intensity using a Tecan M200 Pro spectrophotometer, 560 nm/590 nm (excitation/emission). Cell viability was calculated as a percentage compared with untreated controls. EC50s were determined using GraphPad Prism's “log(inhibitor) vs. normalized response-Variable slope” function. Morphology of HT22 cells following treatments was determined by phase-contrast microscopy.
(§1) Statistical analyses were performed with GraphPad Prism 6 software. For the in vitro HT22 oxytosis assay, dose-response data were fit using GraphPad Prism's log(inhibitor) vs normalized response-variable slope parameters to determine EC50 values and 95% confidence intervals. For the zebrafish locomotive anti-seizure activity data, multiple comparisons were made using a one-way analysis of variance (ANOVA) with a Kruskal-Wallis Test, followed by the Dunn's Method to determine significant differences between all pairs or between control and experimental groups using the Dunn Method for Joint Ranking. Differences were considered statistically significant when p<0.05. Data from zebrafish experiments are represented as scatter dot plots of individual measurements, with means±standard deviation indicated by bars.

[1] = system: PTZ-induced seizure activity in zebrafish larvae; test: Zebrafish PTZ-induced seizure model; format: in vivo; conditions: Danio rerio; for minimal effective concentration: 7 dpf larvae, 1 hr pre-treatment, 10 mM PTZ, read-out: Anti-seizure activity: lowest tested dose with significant difference vs PTZ-only group
Method: The zebrafish PTZ-induced seizure model was used to determine the most promising compounds' in vivo efficacy. Zebrafish larvae (7 dpf) were treated with the compound for 1 hr prior to inducing seizures with PTZ. As established by previous larval zebrafish anti-seizure studies (Rahn et al., 2014; Hansen et al., 2004; Baraban et al., 2005), total distance traveled by each fish after seizure induction was measured and used as a proxy for seizure activity. Following collection of locomotor data, observation of a startle response and visual inspection for abnormal morphology confirmed that alterations in swim activity were not caused by compound toxicity.
We induced seizures in 7 dpf zebrafish larvae by the addition of […] PTZ as originally developed by Baraban et al., 2005. In a 48-well plate, one 7-dpf zebrafish was added per well. Larvae were dosed with each compound at a sub-lethal dose 1 hr prior to PTZ treatment. Two control rows were included with each experiment—tank water only control and PTZ only. Seizures were induced by adding PTZ to wells to yield a final concentration of 10 mM. After 5 min, the plate was transferred to the Daniovision instrument (Noldus Information Technology) and the chamber light was turned on. After 2 min, MediaRecorder (Noldus) was used to record video for 15 min. A small number of videos were acquired at 25 frames per second, but the majority of data were acquired at 60 frames per second. […] Ethovision XT software (Noldus) was used to track the fish movement from the video images in order to calculate the total distance traveled over 15 min. All experimental comparisons were made between animals from the same clutch.
as §1

Zebrafish larvae = test: In vivo toxicology in zebrafish larvae; conditions: for concentration lethal/toxic at 24 hr / overt toxicity observation: 7 dpf larvae; for overt toxicity observation: 5-20 μM, observed 1, 5 and 24 hr
Method: Zebrafish larvae, 7 days post-fertilization (dpf), were exposed to compounds at 20, 15, 10, and 5 μM, six larvae per compound. Animals were observed 1, 5, and 24 hr after dosing for overt toxicity (altered survival, morbidity, morphological deformity). Heart rate, behavior, and startle response were monitored at each time point.
Zebrafish (AB strain) were obtained from the Zebrafish International Resource Center (supported by P40 RR012546 from NIH—NCRR). Zebrafish were maintained and crossed according to standard methods (Westerfield, 2000). Fertilized eggs were collected and placed in E3 embryo medium and positioned in an incubator set at 28.5° C. with a 14/10-hr light/dark cycle (Kimmel et al., 1995). To determine the lethal dose of each compound, 96-well plates containing one zebrafish (7 days post-fertilization, dpf) per well in 100 μL of tank water were used. 100 μL of each compound (0.5-15 μM) was added to each well for 12 animals (one row) for a final volume of 200 μL. One row of larvae was used as dimethyl sulfoxide (DMSO)-only controls. […] All zebrafish studies were approved by the Medical University of South Carolina Institutional Animal Care and Use Committee (#180278) and performed in accordance with the guidelines.
Using a 96-well plate, 7 dpf zebrafish were placed one per well with 100 μL of tank water. 100 μL of each compound was then added to each well for 12 animals (one row) for a final volume of 200 μL. One row of zebrafish larvae was used as DMSO only controls.

[2] = HT-22, 24 h, HT22 cells, 24 hr, 95% CI in parentheses
[3] = read-out: reduction of PTZ-induced locomotor activity

Work on CCCCC#CCNC1=CC(=O)c2ccccc2C1=O [Compound 5, 2-(Hept-2-yn-1-ylamino)naphthalene-1,4-dione] yielded an EC50 (HT22 cells; [2]) of 1570 nM, a minimal effective concentration [1] of no more than 5 µM and an inhibition in vivo at 5 µM ([1]; 5 μM, read-out: reduction of PTZ-induced locomotor activity) of 84%. For the same compound, the inhibition in vivo at 10 µM [1, 3] was 77% and the “concentration lethal/toxic at 24 hr” value (Zebrafish larvae; 24 hr) was 20 µM.

CN(C)CC#CCNC1=CC(=O)c2ccccc2C1=O [Compound 7, 2-((4-(Dimethylamino)but-2-yn-1-yl)amino)naphthalene-1,4-dione] was tested, and the “HT22 protection” value (HT22 cells; HT22 cells) was “poor protection” and the overt toxicity observation (Zebrafish larvae) was “lethal at most concentrations”.

In the case of CC#CCNC1=CC(=O)c2ccccc2C1=O [Compound 2, 2-(But-2-yn-1-ylamino)naphthalene-1,4-dione], the EC50 (HT22 cells; [2]) is reported as 1220 nM, the minimal effective concentration [1] is reported as greater than 20 µM and the inhibition in vivo at 40 µM ([1]; 40 μM, read-out: reduction of PTZ-induced locomotor activity) is reported as 89%. For the same compound, the fish dead (Zebrafish larvae; 5 μM, 24 hr) was “⅚” and the “concentration lethal/toxic at 24 hr” value (Zebrafish larvae; 24 hr) was no less than 10 µM.

O=C1C=C(NCC#Cc2ccccc2)C(=O)c2ccccc21 [Compound 8, 2-((3-Phenylprop-2-yn-1-yl)amino)naphthalene-1,4-dione] was tested, and the EC50 (HT22 cells; HT-22, HT22 cells, 24 hr, 95% CI in parentheses) was 162 nM and the overt toxicity observation (Zebrafish larvae) was “not lethal at any concentration”.

Compound C#CC(C)NC1=CC(=O)c2ccccc2C1=O (racemic) [Compound 19, Rac-2-(but-3-yn-2-ylamino)naphthalene-1,4-dione] has an EC50 (HT22 cells; [2]) of 2140 nM, an EC50 (HT22 cells; HT-22, HT22 cells) of roughly 1500 nM and a minimal effective concentration [1] greater than 10 µM. For the same compound, the fish dead (Zebrafish larvae; 10 μM, 5 hr) was “⅙” and the toxic concentration (Zebrafish larvae; AB, zebrafish, in vivo, 5 hr) was no less than 10 µM.

With CC#CCCNC1=CC(=O)c2ccccc2C1=O [Compound 15, 2-(Pent-3-yn-1-ylamino)naphthalene-1,4-dione] the EC50 (HT22 cells; [2]) was 2910 nM, the EC50 (HT22 cells; HT-22, HT22 cells) was greater than 2000 nM and the overt toxicity observation (Zebrafish larvae) was “acutely lethal to most fish at the lowest concentration after 1 hr”.

For CCCC#CCNC1=CC(=O)c2ccccc2C1=O [Compound 4, 2-(Hex-2-yn-1-ylamino)naphthalene-1,4-dione], the EC50 (HT22 cells; [2]) was 989 nM, the minimal effective concentration [1] was greater than 20 µM and the inhibition in vivo at 10 µM [1, 3] was roughly 80%. The inhibition in vivo at 20 µM ([1]; 20 μM, read-out: reduction of PTZ-induced locomotor activity) was roughly 80% and the fish dead (Zebrafish larvae; 10 μM, 24 hr) was “⅙”.

CCC#CCCNC1=CC(=O)c2ccccc2C1=O [Compound 16, 2-(Hex-3-yn-1-ylamino)naphthalene-1,4-dione] was tested, and the EC50 (HT22 cells; [2]) was 5600 nM, the EC50 (HT22 cells; HT-22, HT22 cells) was greater than 2000 nM and the overt toxicity observation (Zebrafish larvae) was “acutely lethal to most fish at the lowest concentration after 1 hr”.
